Experimental data from US20250177340A1, “Tartaric Acid Analogs and Uses Thereof” (Lapix Therapeutics, Inc., priority 2021, published 2025).
pEC50: −log10 of the molar value.

Legend:
[1] = system: KLRG-1, CTLA-4, TIM-3, PD-1, IFNγ/Granzyme B, FoxP3; assay: Ex vivo flow cytometry of splenocytes after seven doses, murine melanoma model (Example 13); format: in vivo, mice; settings: 7 doses, Compound B 4 mg/mouse PO QD, Compound C 2.5 mg/mouse IV QD; for inhibition of CTLA-4 as compared to control / inhibition of KLGR-1 as compared to control / inhibition of PD-1 as compared to control / inhibition of TIM-3 as compared to control: CD8+ splenocytes, one mouse per group
Description: This study was designed to evaluate the effects of Compound B and Compound C on tumor growth and the overall survival of animals implanted SC with 10^5 melanoma cells. Furthermore, ex vivo analysis of splenocytes at the end of dosing was used to evaluate change in the T-cell population and function. FIG. 8A is a diagram of the study design.
(§1) Animals were housed four per cage and had access to food and water ad libitum. Compound B was dissolved in sterile PBS, and pH was adjusted to approximately 7.5. Compound C was first dissolved in DMSO before diluting in sterile PBS. Sterile PBS was used as a control. Compound B was dosed at 4 mg/mouse PO QD. This dose was expected to result in an exposure equivalent to a 1 mg/mouse IV dose. Compound C was dosed at 2.5 mg/mouse IV.
(§2) B16F10 melanoma cells were grown in RPMI 1640 media supplemented with 10% FBS and antibiotics (penicillin/streptomycin) using T75 flasks. When cells reached 70-80% confluency, they were treated with 3 ml of 0.25% trypsin/EDTA. Detached cells were harvested. A single-cell suspension was prepared in PBS. A dorsal SC injection of 10^5 cells in mice marked day 0 of the experiment. Animals were monitored daily, and tumors were measured twice a week.
For tumor growth inhibition, animals were divided into 3 groups. The control group received an IV injection of PBS to match the start time, dosing volume, and dosing frequency of the Compound C treatment group. The treatment group received 100 μl of 4 mg/mouse PO QD of Compound B for 7 days starting at day 7 after tumor implantation, or 2.5 mg/mouse IV QD of Compound C. The endpoint was reached when the tumor reached 1 cm^3. Tumor volume was calculated using the following formula: […]
On day 14, one mouse from each group was sacrificed for ex vivo analysis. One animal with an average tumor size was selected from the control group and the Compound B treatment group. Since no animals in the Compound C treatment group had any visible tumors by day 14, one mouse was selected at random from the Compound C treatment group.
Spleens were collected and a single-cell suspension was prepared for cellular phenotyping by flow cytometry. Cells were stained and gated for CD8. IFNγ, Granzyme B (GzmB), KLRG-1, CTLA-4, TIM-3, and PD-1 expression was evaluated. Cells gated for CD4 were evaluated for FoxP3 expression.

[2] = system: murine CD8+ T cells; assay: Murine CD8+ T-cell proliferation (CFSE), Example 6; format: cell-based, C57BL/6 mice; settings: 30 mM, ConA 10 μg/ml
Description: Preparation of test materials: TTA, compound A and compound B were formulated in RPMI media under aseptic conditions. The pH was adjusted to approximately 7.5 before dosing cells.
Tissue culture and dosing: Splenocytes of C57BL/6 mice were stained with CFSE and prepared, cultured, and dosed. Cells were seeded at 1×10^5 cells/well in a 96-well round-bottomed plate.
Controls: Two controls were used. A negative control dosed with 10 ng/ml IL2 was used, and a positive control dosed with 20 μg/ml ConA and 10 ng/ml IL2 was used.
Treatment: After ConA stimulation (10 μg/ml), cells were dosed with 30 mM compound A, B or C with or without 0.1 mM 30:70 PS:DMPC liposomes. All wells were dosed with 10 ng/ml of IL-2.

[3] = system: Granzyme B and IFN-γ; assay: Dose-response of GranzymeB/IFN-γ double positivity in murine CD8+ T-cells, Example 9; format: cell-based, C57BL/6 mice; settings: Mus musculus, T-cell; for Emax: FIG. 4, 5-parameter fit, read-out: maximal response (GzmB/IFN-γ double positive CD8+ T-cells)
Description: A dose-response analysis of compounds B-E in murine CD8+ T-cells was conducted to evaluate the effect of dose on GranzymeB/IFN-γ double positivity.
Compound C, D and E were first dissolved in a small volume of DMSO before diluting to the final desired concentration.
Splenocytes from naïve C57BL/6 mice were stained with CFSE, prepared, cultured, and dosed. Cells were seeded at 2×10^5 cells/well. Negative control was dosed with 10 ng/ml IL-2. After ConA stimulation (10 μg/ml), cells were dosed with log 3 dilution of each compound from 3×10^−9 to 30 µM in triplicates. All wells were dosed with 10 ng/ml of IL-2.
Flow cytometer analysis was performed to assess percent CD8+ T-cells and percent activation by double staining for Granzyme B (GzmB) and IFN-γ as described in Example 7. Concentration versus response curve was fitted to a 4- or 5-parameter log-logistic model using the “dre” package in “R”. Both EC50 and EC90 were obtained by model fitting.

[4] = Body weight change in murine melanoma model (Example 13); format: in vivo, mice; settings: Compound B 4 mg/mouse PO QD x7, Compound C 2.5 mg/mouse IV QD
Description: as §1, §2

[5] = system: murine CD8+ T-cells; assay: Murine CD8+ T-cell proliferation concentration-response (CFSE), Example 7; format: cell-based, C57BL/6 mice; settings: for CD8+ T-cell proliferation: 0.001-30 mM, absence of PS, low dose ConA; for model estimated EC80, CD8+ T-cell proliferation: in the presence of 0.1 mM PS, log-logistic model; for reversal of suppressive effects of PS on T-cell proliferation: increasing doses, 0.1 mM PS liposomes
Text: In this study, the effects of increasing doses of compound B and compound C on proliferation (CFSE staining), activation (Granzyme B and IFN-γ), and checkpoint modulation (PD1 and TIM3) of murine CD8+ T-cells in the presence and absence of phosphatidylserine (PS) were explored.
Preparation of test materials: 30:70 PS:DMPC liposomes were synthesized in PBS. […] Compound C was first dissolved in a small volume of DMSO before diluting to the final desired concentration.
Tissue culture and dosing: Splenocytes of C57BL/6 mice were stained with CFSE and prepared, cultured, and dosed. Cells were seeded at 4×10^5 cells/well.
Controls: Two controls were used. A negative control dosed with 10 ng/ml IL-2 was used, and a positive control dosed with 20 μg/ml ConA and 10 ng/ml IL-2 was used.
Treatment: After ConA stimulation (10 μg/ml), cells were dosed with log 3 dilution of compound B or compound C to cover a range from 1×10^−3 to 30 mM in duplicates with or without 0.1 mM PS:DMPC liposomes. All wells were dosed with 10 ng/ml of IL-2.
Flow cytometer: Flow cytometer analysis was performed to assess cell proliferation by CFSE, activation by double staining for Granzyme B (GzmB) and IFN-γ, checkpoint modulation by double staining for PD-1 and TIM3.
Exposure-response analysis: Change from baseline was calculated for each marker as follows:
Concentration versus change was fitted to an appropriate three-, four- or five-parameter log-logistic model using “dre” package in “R.”
The fold change from baseline of CD8+ T-cells proliferation as a function of increasing doses of compound B was calculated using equation 1, where ResponseControl was the proliferation of cells treated with IL-2 alone and Responsetreatment was the proliferation at each dose of compound B. The baseline PS response was calculated using the same equation where Responsetreatment was the proliferation of cells treated with 0.1 mM PS.

| SMILES | decrease in FoxP3 positive CD4+ T-cells compared to placebo [1] [%] | increase in GrzmB/INFγ double-positive CD8+ T-cells compared to placebo [1] [%] | inhibition of CTLA-4 as compared to control [1] [%] | inhibition of KLGR-1 as compared to control [1] [%] | inhibition of PD-1 as compared to control [1] [%] | inhibition of TIM-3 as compared to control [1] [%] | percent of CD8+ T-cell proliferation ([2]; in absence of PS) [%] | percent of CD8+ T-cell proliferation ([2]; in the presence of 0.1 mM PS) [%] | pEC50 ([3]; 4-parameter model) | EC90 ([3]; 4-parameter model) [nM] | pEC50 ([3]; 5-parameter model) | EC90 ([3]; 5-parameter model) [nM] | Emax [3] [%] | greatest measured weight loss [4] [%] | doses at which proliferation overlapped with that in absence of PS ([5]; 0.1 mM PS) | CD8+ T-cell proliferation [5] | model estimated EC80, CD8+ T-cell proliferation [5] [nM] | reversal of suppressive effects of PS on T-cell proliferation [5] | target concentration considered an effective dose ([5]; based on Example 7 analysis) [mM] |
| --- | --- | --- | --- | --- | --- | --- | --- | --- | --- | --- | --- | --- | --- | --- | --- | --- | --- | --- | --- |
| O=C(O)[C@H](O)[C@@H](O)C(=O)OCCC(c1ccccc1)c1ccccc1 [Compound C, (2R,3R)-4-(3,3-diphenylpropoxy)-2,3-dihydroxy-4-oxobutanoic acid] | 59 | 62 | 77 | 70 | 70 | 71 | 84.5 | 55.5 | 7.37 | 29000 | 7.38 | 28000 | ~60 | 1.5 | greater than 0.03 mM | robust proliferation | 14600 | completely reversed | – |
| O=C(O)[C@H](O)[C@@H](O)C(=O)OCCCc1ccccc1 [Compound B, (2R,3R)-2,3-dihydroxy-4-oxo-4-(3-phenylpropoxy)butanoic acid] | 1.5 | 25 | 42 | 55 | 13 | 63 | 78.3 | – | 8.01 | 950 | 7.96 | 3000 | ~60 | 3 | – | robust proliferation | 139000 | partially reversed | 0.1 |
